Measurements taken from patent publication US20140328814A1, “ANTIMICROBIAL AND […] PROBIOTIC COMPOSITION, FOOD PRODUCT AND DIETARY SUPPLEMENT COMPRISING MICROORGANISM STRAIN LACTOBACILLUS […] TENSIA DSM 21380 AND METHOD FOR SUPPRESSING CONTAMINATING MICROBES IN A FOOD PRODUCT” (Oü Tervisliku Piima Biotehnoloogiate Arenduskeskus …, priority 2008, published 2014).
Values after ≈ are worked out from the molar mass of the structure shown.

What was measured:
L. plantarum DSM 21379 = experiment: Antibiotic resistance, E-test MIC, control strain; type: cell-based, Lactobacillus plantarum; details: E-test strips
[1] = test system: Lactobacillus plantarum Tensia DSM 21380; experiment: Antibiotic resistance, E-test MIC; type: cell-based; details: E-test strips
Description: Method. Lactobacillus plantarum Tensia DSM 21380 was tested using antibiotic strips of the E-test (AB Biodisk, Solna).

| Compound | MIC Control strain L. plantarum DSM 21379 (L. plantarum DSM 21379) [µg/mL] | MIC L. plantarum Tensia DSM 21380 [1] [µg/mL] |
| --- | --- | --- |
| CC[C@H]1OC(=O)[C@H](C)[C@@H](O[C@H]2C[C@@](C)(OC)[C@@H](O)[C@H](C)O2)[C@H](C)[C@@H](O[C@@H]2O[C@H](C)C[C@H](N(C)C)[C@H]2O)[C@](C)(O)C[C@@H](C)C(=O)[C@H](C)[C@@H](O)[C@]1(C)O [Erytromycin] | 0.25 (≈ 0.341 µM) | 0.19 (≈ 0.259 µM) |
| Cipro/ofloxacin | 32 | 32 |
| Gentamicin | 1 | 1.5 |
| Quinopristin/dalfopristin | 1 | 1 |
